# Data: patent publication US12459876B2, “One-step kit-based synthesis of 2-deoxy-2-[18F]fluoro-D-sorbitol” (The Johns Hopkins University, priority 2020, dated 2025)
# Like-named read-outs stand apart in the source and are kept apart here.
# Experiments:
# E. coli = conditions: cited from earlier work
# [1] = rat, in vivo; cited from earlier work
# [2] = in vivo; cited from earlier work
# [3] = human, in vivo; cited from earlier work
# K. pneumoniae = conditions: intravenous; PET 120 minutes post-tracer injection; n=6; Mann Whitney U test
structure (smiles),measurement,setting,value
"OC[C@@H](O)[C@@H](O)[C@H](O)[C@@H]([18F])CO [^18F-FDS, 2-deoxy-2-[^18F]fluoro-D-sorbitol]",PET signal outside the site of infection (biodistribution),"Enterobacterales; patient with Enterobacter aerogenes cellulitis, MIP","Signal also is noted in the heart (blood pool), liver, kidneys, and the urinary bladder"
same,Monitoring of antimicrobial response by repeat imaging,"Enterobacterales; patients, repeat imaging after antibiotic treatments",able to monitor antimicrobial response
same,Detection of therapeutic failures,"E. coli; MDR, extended-spectrum β-lactamase producing E. coli strains",detect therapeutic failures
same,Distinction of infection from sterile inflammation,E. coli; mouse models,able to distinguish infection from sterile inflammation
same,Accumulation in the renal cortex,[1],rapid accumulation
same,Renal uptake,[1],significantly delayed
same,Route of clearance,[2],predominantly cleared through the kidneys
same,Accumulation in the renal cortex,[3],rapid ^18F-FDS accumulation in the renal cortex with gradual transition to the parenchyma
same,"SUVmean, areas of pneumonia compared to unaffected lung",K. pneumoniae,significantly higher
